pIC50: −log10 of the molar value. Active and inactive are the calls of the source. No cut-off for these calls is given here.

A short description of test [1]: Inhibition of baker's yeast alpha-glucosidase incubated for 30 mins using p-nitrophenyl-alpha-D-glucopyranoside substrate by spectrophotometry. On the set-up: species or system Saccharomyces cerevisiae.
Test [2] deals with HepG2. In words: Induction of glucose consumption in human HepG2 cells at 1 uM incubated for 24 hrs. In kind it is functional, cell-based.
In test [3] the test system is HepG2. In words: Induction of glucose consumption in human HepG2 cells at 1 mM incubated for 24 hrs. It counts as functional, cell-based.
The test system of test [4] is Saccharomyces cerevisiae. Put plainly: Mixed competitive inhibition of baker's yeast alpha-glucosidase incubated for 30 mins using p-nitrophenyl-alpha-D-glucopyranoside substrate by spectrophotometry based Lineweaver-Burk plot analysis.
The subject of test [5] is Saccharomyces cerevisiae. Put plainly: Irreversible inhibition of baker's yeast alpha-glucosidase incubated for 30 mins using p-nitrophenyl-alpha-D-glucopyranoside substrate by spectrophotometry based Lineweaver-Burk plot analysis.
Test [6] deals with Saccharomyces cerevisiae. Put plainly: Irreversible inhibition of baker's yeast alpha-glucosidase at […] dialyzed for 24 hrs followed by compound re-treatment for 30 mins using p-nitrophenyl-alpha-D-glucopyranoside substrate.

For the compound `COc1ccc(COc2cc3c(cc2-c2ccccc2)C(=O)CO3)cc1`, in test [1], the pIC50 (commonly the negative decadic logarithm of the IC50, by convention in mol/L) was 4.98. The outcome in test [2] was inactive. In the case of `COc1cc2c(cc1-c1ccc(F)cc1)C(=O)/C(=C/c1ccccc1)O2`, the pIC50 in test [1] is under 4.00.

`COc1ccc(COc2cc3c(cc2-c2ccc(F)cc2)C(=O)CO3)cc1` showed a pIC50 in test [1] of 4.60. Compound `O=C1c2ccc(O)cc2OC1Cc1ccc(O)c(O)c1` (stereo unspecified) gave a pIC50 in test [1] of 4.20. On the same count and under the same terms, next, `O=C1/C(=C/c2ccccc2O)Oc2cc(O)ccc21`: 4.03; `COc1ccc(COc2ccc3c(c2)O/C(=C\c2ccccc2)C3=O)cc1`: 4.70; `O=C1/C(=C/c2ccc(O)c(O)c2)Oc2cc(O)ccc21` [SULFURETIN]: 4.17.

In the case of `CCOC(=O)/C=C1\Oc2cc(O)c(-c3ccc(F)cc3)cc2C1=O`, the pIC50 in test [1] is 4.96.

For the compound `O=C1/C(=C/c2ccc(O)cc2)Oc2cc(O)ccc21`, in test [1], the pIC50 is 4.12. In test [1], `COc1cc2c(cc1-c1ccccc1)C(=O)/C(=C/c1ccccc1)O2` had a pIC50 of under 4.00. Consider `COc1cc2c(cc1-c1ccc(C(F)(F)F)cc1)C(=O)CO2`, for which the pIC50 in test [1] was 4.67. Turning to `CCOC(=O)/C=C1\Oc2cc(OC)c(-c3ccc(F)cc3)cc2C1=O`, the pIC50 in test [1] is 4.58. Regarding `CN(C)C(=N)NC(=N)N`, the result in test [3] was Active. As to `O=C1/C(=C/c2cccc(O)c2)Oc2cc(O)ccc21`, the pIC50 in test [1] is under 4.00. As to `O=C1/C(=C/c2ccccc2)Oc2cc(O)c(-c3ccc(C(F)(F)F)cc3)cc21`, the pIC50 in test [1] was 4.51. For the same compound, in test [2], the result was Active. `COc1ccc(COc2cc3c(cc2-c2ccc(C(F)(F)F)cc2)C(=O)CO3)cc1`: in test [1], the pIC50 was 4.96. Take `COc1cc2c(cc1-c1ccc(F)cc1)C(=O)CO2`: the inhibition entry in test [4], in test [5] and in test [6] was “Active” each time. In addition, in test [1], the pIC50 is 5.01. Besides, the outcome in test [2] was Active. On to `O=C1/C(=C/c2ccc(O)cc2O)Oc2cc(O)ccc21`, for which the pIC50 in test [1] was 4.10. Regarding `C[C@H]1O[C@H](O[C@H]2[C@H](O)[C@@H](O)[C@@H](O[C@H]3[C@H](O)[C@@H](O)C(O)O[C@@H]3CO)O[C@@H]2CO)[C@H](O)[C@@H](O)[C@@H]1N[C@H]1C=C(CO)[C@@H](O)[C@H](O)[C@H]1O` (stereo partly specified) [ACARBOSE], the pIC50 in test [1] is 4.30. In test [1], `COc1cc2c(cc1-c1ccccc1)C(=O)CO2` gave a pIC50 of 4.70.

Regarding `COc1ccc(/C=C2\Oc3cc(O)ccc3C2=O)cc1OC`, the pIC50 in test [1] is under 4.00. As for `CCOC(=O)/C=C1\Oc2cc(OCc3ccc(OC)cc3)ccc2C1=O`, in test [1], the pIC50 was 4.48.

`O=C1/C(=C/c2ccccc2)Oc2cc(O)ccc21` gave a pIC50 in test [1] of under 4.00. `CCOC(=O)/C=C1\Oc2cc(O)c(-c3ccc(C(F)(F)F)cc3)cc2C1=O` had a pIC50 in test [1] of 4.84.

As for `COc1ccc(COc2ccc3c(c2)OCC3=O)cc1`, the pIC50 in test [1] was under 4.00.

The values are drawn from ChEMBL document CHEMBL4043096, “Synthesis of 6-hydroxyaurone analogues and evaluation of their α-glucosidase inhibitory and glucose consumption-promoting activity: Development of highly active 5,6-disubstituted derivatives” (Bioorg Med Chem Lett, 2017).
